Measurements reported in ChEMBL document CHEMBL1275357, “Inhibition of Helicobacter pylori aminoacyl-tRNA amidotransferase by chloramphenicol analogs” (Bioorg Med Chem, 2010).

Assay: Competitive inhibition of Helicobacter pylori aminoacyl-tRNA […] GatCAB

| Compound | Ki [µM] |
| --- | --- |
| CN(C)c1ncnc2c1ncn2[C@@H]1O[C@H](CO)[C@@H](NC(=O)[C@@H](N)CCS(C)(=O)=O)[C@H]1O | 4 |
| CS(=O)(=O)CC[C@H](N)C(=O)N[C@@H](CO)[C@@H](O)c1ccc([N+](=O)[O-])cc1 | 160 |
| CS(=O)(=O)CC[C@H](N)C(=O)N[C@H](CO)[C@@H](O)c1ccc([N+](=O)[O-])cc1 | 2800 |
| CS(=O)(=O)CC[C@H](N)C(=O)N[C@H](CO)[C@H](O)c1ccccc1 | 400 |
| CS(=O)(=O)CC[C@H](N)C(=O)N[C@@H](CO)[C@H](O)c1ccc([N+](=O)[O-])cc1 | 370 |
| CS(=O)(=O)CC[C@H](N)C(=O)N[C@H](CO)[C@H](O)c1ccc([N+](=O)[O-])cc1 | 27 |
| O=C(N[C@H](CO)[C@H](O)c1ccc([N+](=O)[O-])cc1)C(Cl)Cl [CHLORAMPHENICOL] | 1850 |
| CS(=O)(=O)CC[C@H](N)C(=O)N[C@H](CO)[C@H](O)c1ccc(S(C)(=O)=O)cc1 | 120 |
